Holding throughout (assay): NCI-60 cell line screen, 48 h
Assay [1] has as its system 786-0 renal.
Assay [2] concerns A498 renal.
The subject of assay [3] is BT-549 breast.
The test system of assay [4] is HCT-116 colon.
Assay [5] deals with HOP-92 NSCLC.
The subject of assay [6] is K-562 leukemia.
Assay [7] relates to MDA-MB-435.
In assay [8] the test system is NCI-H23 lung.
For assay [9], the system named is SNB-75 CNS.
Assay [10] has as its system UO-31 renal.

This passage reports GI50 and TGI results from PubChem BioAssay (NCI).

Several values for one entry are separate records, joined by “and”; a condition that tells them apart may be missing. Equal values may be shown once.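 Test compounds were applied to cells in 96-well plates for 48 hours at 5 doses. Abbreviation: GI50, concentration required for 50% inhibition of growth. Definition used: TGI = concentration required for complete inhibition of growth.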

In the case of `CCN1Cc2c(ccc(F)c2C#N)O[C@@H](C)CNC(=O)c2c(N)nn3ccc1nc23`, the GI50 is 2.85 µM in assay [1]; 0.712 µM in [2]; 5.98 µM in [3]; 1.25 µM in [4]; 0.479 µM in assay [5]; 0.175 µM in assay [6]. The GI50 is 2.74 µM in assay [7], 2.3 µM in assay [8], 0.465 µM in [9] and 1.14 µM in assay [10]. Moreover, the TGI in assay [1] was 15.9 µM; in assay [2], 3.9 µM; in assay [3], 18.5 µM; in assay [4] it was 11.5 µM; in assay [5] it was 3.65 µM; in assay [6], over 100 µM. In addition, the TGI in [7] came out at 20.2 µM; in assay [8], 29.4 µM; in assay [9], 3.82 µM; in assay [10] it was 6.53 µM.
`Cc1ccc2nc(-c3ccccc3)c(N=O)n2c1`: the TGI in [1], in assay [2], in assay [3], in assay [4], in [5] and in [6] was over 100 µM each time. The TGI in assay [7], in assay [8], in assay [9] and in assay [10] was over 100 µM each time.
Take `COc1cc(/C=C/C(=O)c2c(C)nc3ccccc3c2/C=C/c2ccc(C)cc2)cc(OC)c1OC`: the GI50 in [1] was 1.95 µM; in assay [2], 2 µM; in assay [3] it was 2.06 µM; in [4], 1.36 µM; in assay [5], 1.61 µM; in [6], 2.75 µM. Moreover, the GI50 in assay [7] was 1.99 µM; in [8] it was 1.72 µM; in [9] it was 1.47 µM; in [10], 1.37 µM. Moreover, the TGI in assay [1] is 3.81 µM; in assay [2] it was 4.87 µM; in assay [3] it was 4.57 µM; in [4] it was 2.82 µM; in assay [5], 3.9 µM; in [6], over 100 µM. Besides, the TGI in assay [7] was determined as 4.55 µM; in assay [8], 3.8 µM; in [9], 4.82 µM; in assay [10], 2.67 µM.
On to `COC(=O)CCC1CCC(c2cc(F)ccc2F)(S(=O)(=O)c2ccc(Cl)cc2)CC1` (centres undefined), for which the GI50 was over 100 µM in assay [1]; 40.4 µM in assay [2]; 70.6 µM in assay [3]; 38.2 µM in assay [4]; 15.4 µM in assay [5]; over 100 µM in assay [6]. In addition, the GI50 in assay [7] was 88.5 µM; in [8], 42.5 µM; in [9], over 100 µM; in assay [10], 28 µM. Further, the TGI in assay [1], in [2], in [3], in assay [4], in assay [5] and in assay [6] was over 100 µM throughout. The TGI in [7], in assay [8], in assay [9] and in assay [10] was over 100 µM in each case.
For the compound `Cc1ccc2c(c1)C(C)Cc1c(Cl)ncnc1N2C` (centres undefined), the GI50 in assay [1] was 3.25 µM; in [2] it was 2.08 µM; in assay [3], 3 µM; in assay [4], 3.01 µM; in [5], 2.92 µM; in assay [6], 3.47 µM. For the same compound, the GI50 is 2.23 µM in assay [7], 3.29 µM in [8], 0.394 µM in assay [9] and 3.03 µM in [10]. The TGI in [1] was 17.8 µM; in [2], 4.78 µM; in assay [3], 9.74 µM; in [4] it was 14.2 µM; in assay [5], 8.5 µM; in [6], over 100 µM. Also, the TGI in assay [7] is 5.63 µM; in assay [8], 22.7 µM; in assay [9], 22.5 µM; in [10] it was 45.2 µM.
In the case of `N#CC1=C(N)Oc2c(sc3c(Br)cccc23)C1c1ccc(Br)cc1` (centres undefined), the GI50 is 0.776 µM in [1]; 0.633 µM in assay [2]; 1.32 µM in [3]; 0.407 µM in assay [4]; 1.43 µM in assay [5]; 0.137 µM in assay [6]. In addition, the GI50 is 0.109 µM in [7], 1.58 µM in assay [8], 0.407 µM in [9] and 1.95 µM in assay [10]. Besides, the TGI worked out at 2.96 µM in assay [1]; 9.56 µM in assay [2]; 12.7 µM in [3]; 1.84 µM in assay [4]; 5.56 µM in assay [5]; 3.16 µM in [6]. For the same compound, the TGI in [7] was 0.46 µM; in assay [8], 13.4 µM; in [9], 3.09 µM; in assay [10] it was 11.8 µM.
`Cc1cc(=O)[nH]c2cc3c(c4c(n3Cc3ccc(Cl)cc3Cl)CC(C)(C)CC4=O)c(O)c12`: the GI50 in assay [1] is 0.0145 µM; in assay [2], over 100 µM; in [3] it was 19.6 µM; in assay [4] it was over 100 µM; in [5], 54.2 µM; in assay [6], over 100 µM. Besides, the GI50 was 57.4 µM in assay [7], 39.6 µM in assay [8], 24.6 µM in assay [9] and over 100 µM in assay [10]. For the same compound, the TGI was 0.134 µM in [1]; over 100 µM in [2]; 64.2 µM in assay [3]; over 100 µM in assay [4]; over 100 µM in assay [5]; over 100 µM in assay [6]. Moreover, the TGI is over 100 µM in assay [7], over 100 µM in assay [8], 59.8 µM in assay [9] and over 100 µM in assay [10].
For `CCCCCCCCCCC(C(O)c1ccccc1)N1CCCCC1` (centres undefined), the GI50 in assay [1] was 1.78 µM; in assay [2], 1.92 µM; in assay [3] it was 4.57 µM; in [4], 1.62 µM; in [5] it was 1.82 µM; in assay [6] it was 2.19 µM. Besides, the GI50 was 1.66 µM in assay [7], 2.27 µM in assay [8], 2.32 µM in assay [9] and 1.24 µM in assay [10]. Besides, the TGI in assay [1] stood at 3.25 µM; in assay [2] it was 6.77 µM; in assay [3] it was 16.5 µM; in [4], 3.01 µM; in assay [5] it was 3.83 µM; in [6], 5.93 µM. The TGI in assay [7] came to 3.03 µM; in assay [8], 5.97 µM; in assay [9], 5.65 µM; in assay [10] it was 2.84 µM.
`Oc1[nH]c2c(Br)cccc2c1C1=Nc2ccccc2/C1=N/OCCN1CCCC1`: the GI50 in assay [1] is 0.648 µM and 0.942 µM; in assay [2] it was 0.739 µM and 1.34 µM; in assay [3] it was 1.24 µM; in assay [4], 0.448 µM; in assay [5], 1.04 µM; in assay [6] it was 0.424 µM. The GI50 in assay [7] is 1.58 µM and 1.91 µM; in assay [8] it was 1.02 µM and 0.959 µM; in assay [9], 1.14 µM; in [10], 0.44 µM. The TGI was 2.58 µM and 4.31 µM in assay [1]; 2.21 µM and 7.36 µM in assay [2]; 2.85 µM in assay [3]; 1.78 µM in [4]; 3.12 µM in [5]; over 100 µM in assay [7]. Besides, the TGI in [8] was 4.17 µM and 36.5 µM; in assay [9], 3.64 µM; in [10], 4.97 µM.
Turning to `CCN1C(=O)N(c2ccccc2)C2NC(=S)N(/N=C/C=C/c3ccccc3)C21` (centres undefined), the GI50 is 0.521 µM in [1]; 0.105 µM in assay [2]; 0.643 µM in assay [3]; 0.297 µM in assay [4]; 4.66 µM in assay [5]; 0.155 µM in assay [6]. Moreover, the GI50 in assay [7] was 0.0314 µM; in assay [8] it was 0.569 µM; in assay [9], over 100 µM; in assay [10] it was 0.499 µM. For the same compound, the TGI is over 100 µM in assay [1]; 0.699 µM in assay [2]; over 24.7 µM in assay [3]; over 100 µM in assay [4]; over 100 µM in assay [5]; over 100 µM in assay [6]. The TGI is 0.216 µM in assay [7], over 100 µM in assay [8], over 100 µM in assay [9] and over 100 µM in [10].
As to `CCC[CH2][Sn]([CH2]CCC)([CH2]CCC)[O]C(=O)c1ccc(Cl)cc1Cl`, the GI50 in [1] was 0.13 µM; in assay [2], 0.11 µM; in assay [3], 0.119 µM; in assay [4], 0.127 µM; in assay [5] it was 0.102 µM; in assay [6], 0.263 µM. Further, the GI50 in [7] is 0.16 µM; in assay [8], 0.13 µM; in assay [9], 0.117 µM; in [10] it was 0.146 µM. Further, the TGI in [1] came to 0.259 µM; in [2], 0.236 µM; in assay [3], 0.251 µM; in assay [4], 0.262 µM; in assay [5], 0.301 µM; in assay [6] it was 1.02 µM. For the same compound, the TGI in assay [7] is 0.335 µM; in [8] it was 0.296 µM; in assay [9], 0.248 µM; in [10] it was 0.304 µM.
On to `COc1ccc(C(=O)/C=C/c2ccc3c(c2)OCO3)c(OCc2ccccc2)c1`, for which the TGI in [1], in assay [2], in assay [3], in [4], in assay [5] and in assay [6] was over 100 µM throughout. Further, the TGI in assay [7], in assay [8], in assay [9] and in [10] was over 100 µM each time.
